According to patent US10758633B2, “Nanoparticles for magnetic resonance imaging applications” (Massachusetts Institute of Technology, priority 2014, dated 2020):

Assay: MRI contrast enhancement in blood over time, 1.5 T clinical MRI, mice brain slice
Format: in vivo
Conditions: intravenous injection, T1-weighted
Procedure: The MRI contrast enhancement of Magnevist® (the most commonly used gadolinium-based contrast agents, GBCAs) and ES-SPIONs in blood were compared over time. According to approved animal protocols, mice were scanned in a 1.5 T clinical MRI machine. After intravenous injection of Magnevist or ES-SPIONs, the T1-weighted images of a single slice in mice brain were taken using clinical MRI sequences (˜3.5 mins time length), and then the half-life of contrast enhancements of both agents were compared side-by-side. […] Left and right images show corresponding side views of the image in the middle. It can be seen in FIG. 6 that a three dimensional profile highlighting the blood vessels in brain was generated.

CNC[C@H](O)[C@@H](O)[C@H](O)[C@H](O)CO.CNC[C@H](O)[C@@H](O)[C@H](O)[C@H](O)CO.O=C([O-])CN(CCN(CC(=O)[O-])CC(=O)O)CCN(CC(=O)[O-])CC(=O)O.[Gd+3] [Magnevist]
half-life of contrast enhancement: ~2 min
